{"source": "paper PMC10290954", "about": "(Nature Metabolism, 2023)", "type_in_all_cases": "cell-based", "key": {"human islets [1]": {"tested_on": "human islets", "test": "Human islet perifusion, insulin secretion with Ex9 or hGIP(3-30) (Extended Data Fig. 2)", "design": "key to iAUC: insulin iAUC, ng/ml × (1/200 µl/ml) × (1/75 islets), baseline = first point", "details": "insulin secretion; for Mean (One way ANOVA): iAUC, Control = 1, mean of n = 3; for iAUC: TZP + PBS or labelled antagonist", "protocol": "(§1) Human islets were obtained from both the Alberta Diabetes Institute and the Integrated Islet Distribution Program. All islets were obtained from consenting donors. Details for the general perifusion protocol have been previously described[21] and are similar to the mouse perifusion protocol. […] Each set of human islets consisted of n = 3 for each condition. These were averaged to generate a single data point (Fig. 2c). Insulin values were measured with a Lumit insulin immunoassay (Promega) using an EnVision plate reader (PerkinElmer). For the glucagon secretion experiments (Fig. 3), the average glucagon values were calculated during control (minutes 35–45) and stimulated (minutes 55–65) conditions. All peptides were used at 30 nM concentrations based on previous work[16]. Amino acids were used at concentrations of 3 mM based on previous work[11]. Glucagon was measured with a Lumit Glucagon Immunoassay Kit (cat. no. CS3037A02; Promega) using an EnVision plate reader (PerkinElmer). Somatostatin was measured with an ELISA assay (cat. no. FEK-060-14; Phoenix Pharmaceuticals). All data are expressed as the measured concentration relative to both flow rate and islet number (insulin, ng ml^–1 × (1/200 µl ml^–1) × (1/75 islets); glucagon, pM × (1/200 µl ml^–1) × (1/75 islets); somatostatin, pg ml^–1 × (1/200 µl ml^–1) × (1/75 islets))[49]. Human pancreatic islets and pancreas tissue were isolated from deceased donors under ethical approval from the Human Research Ethics Board of the University of Alberta (Pro00013094, Pro00001754) and obtained from the NIDDK-funded Integrated Islet Distribution Program (IIDP) (RRID: SCR _014387). All donors’ families gave informed consent for the use of pancreatic tissue in research and were not financially compensated.\nThe integrated area under the curve (iAUC) was calculated for both glucose and tirzepatide stimulated insulin secretion using the value of the first time point as the baseline. All values are mean + /- SEM, n = 3/group. A one-way ANOVA with Tukey’s posthoc test was used. Source data"}, "human islets [2]": {"tested_on": "human islets", "test": "Human islet perifusion, insulin secretion (Fig. 2)", "details": "human islets stimulated with TZP; for TZP insulin secretion iAUC, Percent Control: % of Average Control (PBS); for TZP insulin secretion iAUC: PBS or antagonist(s) as labelled", "protocol": "as §1"}, "mouse islets [3]": {"tested_on": "mouse islets", "test": "Mouse islet perifusion with incretin receptor antagonists (Fig. 1b), insulin secretion", "details": "antagonists 1 μM, tirzepatide 0–100 nM", "protocol": "(§2) In brief, islets were individually picked to ensure consistency across chambers with respect to both number and size. […] Insulin values were measured with a Lumit insulin immunoassay (Promega) using an EnVision plate reader (PerkinElmer)."}, "mouse islets [4]": {"tested_on": "mouse islets", "test": "Mouse islet perifusion, control and Gipr beta-cell knockout islets ± Ex9 (Fig. 1a), insulin secretion", "details": "Ex9 1 μM", "protocol": "as §2"}}, "data": [{"substance": "exendin(9-39) [Ex9]", "values": [{"measurement": "Mean (One way ANOVA)", "setting": "human islets [1]; donor R464, R464 (3-30) TZP", "value": 1.267}, {"measurement": "Mean (One way ANOVA)", "setting": "human islets [1]; donor S5423, SAMN5423 (3-30) TZP", "value": 1.135}, {"measurement": "iAUC", "setting": "human islets [1]; donor R464, replicate 1", "value": 1.277}, {"measurement": "iAUC", "setting": "human islets [1]; donor R464, replicate 2", "value": 1.0253}, {"measurement": "iAUC", "setting": "human islets [1]; donor R464, replicate 3", "value": 1.497}, {"measurement": "iAUC", "setting": "human islets [1]; donor S5423, replicate 1", "value": 1.294}, {"measurement": "iAUC", "setting": "human islets [1]; donor S5423, replicate 2", "value": 1.08}, {"measurement": "iAUC", "setting": "human islets [1]; donor S5423, replicate 3", "value": 1.031}, {"measurement": "TZP insulin secretion iAUC, Percent Control", "setting": "human islets [2]; donor R434, replicate 1", "value": 81.0, "unit": "%Control"}, {"measurement": "TZP insulin secretion iAUC, Percent Control", "setting": "human islets [2]; donor R434, replicate 2", "value": 70.5, "unit": "%Control"}, {"measurement": "TZP insulin secretion iAUC, Percent Control", "setting": "human islets [2]; donor R434, replicate 3", "value": 110.7, "unit": "%Control"}, {"measurement": "TZP insulin secretion iAUC", "setting": "human islets [2]; donor R434, replicate 1", "value": 149.1}, {"measurement": "TZP insulin secretion iAUC", "setting": "human islets [2]; donor R434, replicate 2", "value": 129.7}, {"measurement": "TZP insulin secretion iAUC", "setting": "human islets [2]; donor R434, replicate 3", "value": 203.7}, {"measurement": "TZP insulin secretion iAUC, Percent Control", "setting": "human islets [2]; donor R443, replicate 1", "value": 152.6, "unit": "%Control"}, {"measurement": "TZP insulin secretion iAUC, Percent Control", "setting": "human islets [2]; donor R443, replicate 2", "value": 43.9, "unit": "%Control"}, {"measurement": "TZP insulin secretion iAUC, Percent Control", "setting": "human islets [2]; donor R443, replicate 3", "value": 123.9, "unit": "%Control"}, {"measurement": "TZP insulin secretion iAUC", "setting": "human islets [2]; donor R443, replicate 1", "value": 9.764}, {"measurement": "TZP insulin secretion iAUC", "setting": "human islets [2]; donor R443, replicate 2", "value": 2.809}, {"measurement": "TZP insulin secretion iAUC", "setting": "human islets [2]; donor R443, replicate 3", "value": 7.929}, {"measurement": "TZP insulin secretion iAUC, Percent Control", "setting": "human islets [2]; donor R444, replicate 1", "value": 49.3, "unit": "%Control"}, {"measurement": "TZP insulin secretion iAUC, Percent Control", "setting": "human islets [2]; donor R444, replicate 2", "value": 46.5, "unit": "%Control"}, {"measurement": "TZP insulin secretion iAUC, Percent Control", "setting": "human islets [2]; donor R444, replicate 3", "value": 59.5, "unit": "%Control"}, {"measurement": "TZP insulin secretion iAUC", "setting": "human islets [2]; donor R444, replicate 1", "value": 12.31}, {"measurement": "TZP insulin secretion iAUC", "setting": "human islets [2]; donor R444, replicate 2", "value": 11.61}, {"measurement": "TZP insulin secretion iAUC", "setting": "human islets [2]; donor R444, replicate 3", "value": 14.86}, {"measurement": "TZP insulin secretion iAUC, Percent Control", "setting": "human islets [2]; donor R448, replicate 1", "value": 95.4, "unit": "%Control"}, {"measurement": "TZP insulin secretion iAUC, Percent Control", "setting": "human islets [2]; donor R448, replicate 2", "value": 86.1, "unit": "%Control"}, {"measurement": "TZP insulin secretion iAUC, Percent Control", "setting": "human islets [2]; donor R448, replicate 3", "value": 78.6, "unit": "%Control"}, {"measurement": "TZP insulin secretion iAUC", "setting": "human islets [2]; donor R448, replicate 1", "value": 169.1}, {"measurement": "TZP insulin secretion iAUC", "setting": "human islets [2]; donor R448, replicate 2", "value": 152.5}, {"measurement": "TZP insulin secretion iAUC", "setting": "human islets [2]; donor R448, replicate 3", "value": 139.2}, {"measurement": "TZP insulin secretion iAUC, Percent Control", "setting": "human islets [2]; donor R449, replicate 1", "value": 10.8, "unit": "%Control"}, {"measurement": "TZP insulin secretion iAUC, Percent Control", "setting": "human islets [2]; donor R449, replicate 2", "value": 15.5, "unit": "%Control"}, {"measurement": "TZP insulin secretion iAUC, Percent Control", "setting": "human islets [2]; donor R449, replicate 3", "value": 25.1, "unit": "%Control"}, {"measurement": "TZP insulin secretion iAUC", "setting": "human islets [2]; donor R449, replicate 1", "value": 14.8}, {"measurement": "TZP insulin secretion iAUC", "setting": "human islets [2]; donor R449, replicate 2", "value": 21.27}, {"measurement": "TZP insulin secretion iAUC", "setting": "human islets [2]; donor R449, replicate 3", "value": 34.32}, {"measurement": "TZP insulin secretion iAUC, Percent Control", "setting": "human islets [2]; donor R451, replicate 1", "value": 39.0, "unit": "%Control"}, {"measurement": "TZP insulin secretion iAUC, Percent Control", "setting": "human islets [2]; donor R451, replicate 2", "value": 22.6, "unit": "%Control"}, {"measurement": "TZP insulin secretion iAUC, Percent Control", "setting": "human islets [2]; donor R451, replicate 3", "value": 24.7, "unit": "%Control"}, {"measurement": "TZP insulin secretion iAUC", "setting": "human islets [2]; donor R451, replicate 1", "value": 36.08}, {"measurement": "TZP insulin secretion iAUC", "setting": "human islets [2]; donor R451, replicate 2", "value": 20.91}, {"measurement": "TZP insulin secretion iAUC", "setting": "human islets [2]; donor R451, replicate 3", "value": 22.84}, {"measurement": "TZP insulin secretion iAUC, Percent Control", "setting": "human islets [2]; donor S1472, replicate 1", "value": 91.9, "unit": "%Control"}, {"measurement": "TZP insulin secretion iAUC, Percent Control", "setting": "human islets [2]; donor S1472, replicate 2", "value": 146.0, "unit": "%Control"}, {"measurement": "TZP insulin secretion iAUC, Percent Control", "setting": "human islets [2]; donor S1472, replicate 3", "value": 127.6, "unit": "%Control"}, {"measurement": "TZP insulin secretion iAUC", "setting": "human islets [2]; donor S1472, replicate 1", "value": 50.05}, {"measurement": "TZP insulin secretion iAUC", "setting": "human islets [2]; donor S1472, replicate 2", "value": 79.46}, {"measurement": "TZP insulin secretion iAUC", "setting": "human islets [2]; donor S1472, replicate 3", "value": 69.48}, {"measurement": "TZP insulin secretion iAUC, Percent Control", "setting": "human islets [2]; donor S2886, replicate 1", "value": 19.6, "unit": "%Control"}, {"measurement": "TZP insulin secretion iAUC, Percent Control", "setting": "human islets [2]; donor S2886, replicate 2", "value": 20.0, "unit": "%Control"}, {"measurement": "TZP insulin secretion iAUC, Percent Control", "setting": "human islets [2]; donor S2886, replicate 3", "value": 50.9, "unit": "%Control"}, {"measurement": "TZP insulin secretion iAUC", "setting": "human islets [2]; donor S2886, replicate 1", "value": 36.46}, {"measurement": "TZP insulin secretion iAUC", "setting": "human islets [2]; donor S2886, replicate 2", "value": 37.22}, {"measurement": "TZP insulin secretion iAUC", "setting": "human islets [2]; donor S2886, replicate 3", "value": 94.97}, {"measurement": "Effect on tirzepatide-stimulated insulin secretion", "setting": "mouse islets [3]", "value": "prevented insulin secretion in response to tirzepatide"}, {"measurement": "Effect on tirzepatide-stimulated insulin secretion", "setting": "mouse islets [4]", "value": "completely blocked insulin secretion in response to tirzepatide"}]}]}
